The assay concerns NmGT8 protein. Kind of assay: Enzyme reaction of flavone substrates with His-tag purified NmGT8 protein solution and UDP-glucose (HPLC). Type of assay: biochemical, Nemophila menziesii. The following applies: NmGT8 protein solution, UDP-glucose, 1 mM substrate stock, 20 minutes at 30° C., HPLC 330 nm. The protocol:
The transformed E. coli were cultured at 37° C. to an OD600 value of 0.5 in 8 ml of the prepared culture liquid (approx. 4 hours). This E. coli culture liquid was then used as a pre-culture liquid and added to 200 ml of culture liquid followed by final culturing overnight at 25° C.
Following final culturing overnight, the E. coli culture liquid was centrifuged (1000×g, 4° C., 10 minutes), the collected cells were suspended in 20 ml of extract (composition: buffer (KCl: 300 mM, KH2PO4: 50 mM, imidazole: 5 mm) (pH 8.0), amidinophenylmethanesulfonyl fluoride hydrochloride (APMSF): 10 μM), and after crushing the E. coli by ultrasonic treatment, the crushed cells were centrifuged (1400×g, 4° C., 20 minutes) followed by recovery of the supernatant. This supernatant was passed through a 0.45 μm filter and purified by His-Tag protein purification using Profinia (Bio-Rad Laboratories, Inc.) in accordance with the protocol recommended by the manufacturer. The resulting purified protein solution was centrifuged (7500×g, 4° C., 15 minutes) using centrifugal filters (Ultracel-10K, Amicon Corp.) and the concentrated protein solution was designated as “NmGT8 Protein Solution”. The Avanti HP-26XP (rotor: JA-2) (Beckman Coulter Inc.) was used for centrifugation.
A reaction liquid prepared by mixing 10 μl of protein solution, 2 μl of 50 mM UDP-glucose, 10 μl of 1 M Tris HCl (pH 7.5) and 5 μl of 1 mM apigenin on ice and bringing to a volume of 100 μl with water was held for 20 minutes at 30° C. Subsequently, 100 μl of stop buffer (90% aqueous acetonitrile solution containing 0.1% TFA) were added to stop the reaction followed by analyzing the reaction liquid by high-performance liquid chromatography (Prominence (Shimadzu Corp.)). The Shimadzu PDA SPD-M10AVP was used for the detector and flavone was detected at 330 nm. The Shim-Pack ODS 150 mm×4.6 mm column (Shimadzu Corp.) was used for the column. A Solution A (0.1% aqueous TFA solution) and a Solution B (90% aqueous methanol solution containing 0.1% TFA) were used for elution. Elution was carried out using a linear concentration gradient from an 8:2 mixture of the two solutions to a 3:7 mixture of the two solutions over the course of 10 minutes followed by a 3:7 mixture for 6 minutes. The flow rate was 0.6 ml/min.
Regarding `O=c1cc(-c2ccc(O)cc2)oc2cc(O[C@@H]3O[C@H](CO)[C@@H](O)[C@H](O)[C@H]3O)cc(O)c12` [apigenin 7-glucoside], the “glycosylation product biosynthesized from the substrate” value (“glycosylation product biosynthesized” below) was “apigenin 4′,7-diglucoside was not biosynthesized”.

As to `O=c1cc(-c2ccc(O)cc2)oc2cc(O)cc(O)c12` [apigenin, 4′,5,7-trihydroxyflavone], the “glycosylation product biosynthesized” value is “flavone demonstrating the same retention time and absorption maximum as purified apigenin 4′-glucoside was biosynthesized”.

Turning to `O=c1cc(-c2ccc(O)c(O)c2)oc2cc(O[C@@H]3O[C@H](CO)[C@@H](O)[C@H](O)[C@H]3O)cc(O)c12` [luteolin 7-glucoside], the “glycosylation product biosynthesized” value is recorded as “luteolin 4′,7-diglucoside was also not biosynthesized”.

As to `O=c1cc(-c2ccc(O)c(O)c2)oc2cc(O)cc(O)c12` [luteolin, 3′,4′,5,7-tetrahydroxyflavone], the “glycosylation product biosynthesized” value is reported as “Luteolin 4′-glucoside was biosynthesized”.

(Values after patent US10059956B2, “Glycosyltransferase gene and use thereof” (SUNTORY HOLDINGS LIMITED, priority 2012, dated 2018).)
